In patent US5587459A, “Immunoconjugates comprising tyrosine kinase inhibitors” (Regents of the University of Minnesota, priority 1994, dated 1996):
Read-outs that look alike come from different tables or passages of the source.

Tests used:
[1] = system: NALM-6 cells (human B-lineage leukemia); experiment: SCID mouse model of human B-lineage leukemia; assay type: in vivo; conditions: SCID mice inoculated with NALM-6 cells; schedule of each treatment group as in Table 6
Experimental: (§1) The pharmacokinetic features of B43-GEN was evaluated in a SCID mouse model with human B-lineage leukemia as follows. SCID mice challenged with NALM-6 cells were treated with either 25 μg/mouse=168 pmols/mouse (>10-foldlower than the MTD) or 50 μg/mouse=335 pmols/mouse (>5-fold lower than the MTD). All control mice were treated with unconjugated GEN (10 μg/mouse=37 nmols/mouse), unconjugated B43 antibody (50 μg/mouse=335pmols/mouse), TXU(anti-CD7)-GEN control immunoconjugate (50 μg/mouse=335 pmols/mouse), or PBS.
All control mice treated with unconjugated GEN, unconjugated B43 antibody, TXU(anti-CD7)-GEN control immunoconjugate, or PBS died of disseminated human B-lineage leukemia at 24 to 61 days after inoculation (FIG. 8). […] These long-term surviving mice were electively killed at 142 days in order to examine their burden of human leukemia cells.

[2] = target: T1, CD19-associated LYN kinase (Homo sapiens, UniProt P07948); experiment: Immune complex kinase assay, LYN in treated NALM-6 cells; assay type: cell-based; conditions: NALM-6 cells treated 4 hours; immunoconjugate nanomolar, unconjugated GEN micromolar
T1 construct: LYN kinase immunoprecipitated from NALM-6 cells; endogenous in cells; host or cells: NALM-6
Experimental: Immune complex kinase assays were performed using acid-denatured rabbit enolase as an exogenous PTK substrate as previously described by Uckun et al. in J. Biol. Chem., 268, 21172 (1993).
Controls were treated with unconjugated GEN, TXU(anti-CD7)-GEN immunoconjugate directed against the CD7/Tp41 T-cell surface antigen, unconjugated and unmodified B43 antibody, or SANPAH-modified unconjugated B43 antibody.

[3] = system: tyrosine phosphorylation of abundant protein substrates in NALM-6 cells; experiment: Antiphosphotyrosine immunoblotting, NALM-6 cells; assay type: cell-based, human; conditions: immunoconjugate nanomolar, unconjugated GEN micromolar
RAMOS cells = experiment: Apoptosis assays in RAMOS cells (morphology, DNA flow cytometry, DNA fragmentation); assay type: cell-based, human
Excerpt: DNA was then electrophoresed through a 1% agarose gel and visualized by UV light after staining with ethidium bromide.

[4] = system: RAMOS cells (human Burkitt's lymphoma); experiment: SCID mouse model of human B-lineage lymphoma; assay type: in vivo, SCID mice; conditions: 5×10^6 RAMOS cells; one value pooled over all control groups incl. PBS
Experimental: Control mice were treated with unconjugated GEN (10 μg/mouse=37 nmols/mouse), unconjugated B43 monoclonal antibody (50 μg/mouse=335 pmols/mouse), TXU(anti-CD7)-GEN control immunoconjugate (50 μg/mouse=335 pmols/mouse), or PBS. For comparison, some mice were treated with B43-pokeweed antiviral protein (PAP) immunotoxin (total=25 μg/mouse), which is an active anti-leukemia agent. Uckun et al., J. Exp. Med., 163, 347 (1986). Survival of the mice was monitored by daily observation and event times were measured from the day of inoculation of lymphoma cells to the day of death. The probability of event-free survival was determined and event-free interval curves were generated using the Kaplan-Meier product limit method as described by Uckun et al. New Engl. J. Med., 329, 1296 (1993).

in vivo [5] = assay type: in vivo, SCID mice; conditions: Minimal Leukemia Burden
Experimental: Lines represent two-compartment model simulations, symbols depict measured concentrations.
as §1

in vivo [6] = experiment: in vivo; parameters: species or system SCID mice; conditions: Minimal Leukemia Burden; for Kp: mouse, in vivo, iv
Experimental: FIG. 7[C] is a depiction of the plasma or tissue concentrations vs. time curves after i.v. injection of 58 pmol GEN (Δ) or BP43-GEN (o,) into SCID mice with end stage leukemia (dashed lines) or no leukemia (solid lines). Lines represent simulations from the physiological pharmacokinetic model, symbols depict measured concentrations.
as §1
This hypothesis is supported by measurement of higher concentrations of the immunoconjugate in tissues of SCID mice with end-stage leukemia, when compared to healthy SCID mice which have not been inoculated with leukemia cells (FIG. 7C). The spleen, liver, and lungs had the highest tissue-to-plasma ratio, with the tissue distribution ratio increasing approximately 2-fold in spleen and liver of mice with end-stage leukemia (Table 5). Although tissue distribution of the immunoconjugate into the femur was low in mice with a minimal leukemia burden, it increased 3-fold in mice with end-stage leukemia, reflecting binding of the immunoconjugate to CD19 positive human B-lineage leukemia cells infiltrating bone marrow.

[7] = target: T2, human topoisomerase II enzyme (Homo sapiens, UniProt P11388); experiment: Topoisomerase II Drug Screening kit (pRYG relaxation/cleavage); assay type: biochemical; conditions: B43-GEN at micromolar concentrations
T2 construct: purchased Topogen, Inc., Columbus, Ohio
Excerpt: The kit is based upon formation of DNA cleavage products after treatment of a supercoiled DNA substrate (pRYG) containing a single high affinity topoisomerase II recognition and cleavage site.

T2 sequence (P11388 whole entry): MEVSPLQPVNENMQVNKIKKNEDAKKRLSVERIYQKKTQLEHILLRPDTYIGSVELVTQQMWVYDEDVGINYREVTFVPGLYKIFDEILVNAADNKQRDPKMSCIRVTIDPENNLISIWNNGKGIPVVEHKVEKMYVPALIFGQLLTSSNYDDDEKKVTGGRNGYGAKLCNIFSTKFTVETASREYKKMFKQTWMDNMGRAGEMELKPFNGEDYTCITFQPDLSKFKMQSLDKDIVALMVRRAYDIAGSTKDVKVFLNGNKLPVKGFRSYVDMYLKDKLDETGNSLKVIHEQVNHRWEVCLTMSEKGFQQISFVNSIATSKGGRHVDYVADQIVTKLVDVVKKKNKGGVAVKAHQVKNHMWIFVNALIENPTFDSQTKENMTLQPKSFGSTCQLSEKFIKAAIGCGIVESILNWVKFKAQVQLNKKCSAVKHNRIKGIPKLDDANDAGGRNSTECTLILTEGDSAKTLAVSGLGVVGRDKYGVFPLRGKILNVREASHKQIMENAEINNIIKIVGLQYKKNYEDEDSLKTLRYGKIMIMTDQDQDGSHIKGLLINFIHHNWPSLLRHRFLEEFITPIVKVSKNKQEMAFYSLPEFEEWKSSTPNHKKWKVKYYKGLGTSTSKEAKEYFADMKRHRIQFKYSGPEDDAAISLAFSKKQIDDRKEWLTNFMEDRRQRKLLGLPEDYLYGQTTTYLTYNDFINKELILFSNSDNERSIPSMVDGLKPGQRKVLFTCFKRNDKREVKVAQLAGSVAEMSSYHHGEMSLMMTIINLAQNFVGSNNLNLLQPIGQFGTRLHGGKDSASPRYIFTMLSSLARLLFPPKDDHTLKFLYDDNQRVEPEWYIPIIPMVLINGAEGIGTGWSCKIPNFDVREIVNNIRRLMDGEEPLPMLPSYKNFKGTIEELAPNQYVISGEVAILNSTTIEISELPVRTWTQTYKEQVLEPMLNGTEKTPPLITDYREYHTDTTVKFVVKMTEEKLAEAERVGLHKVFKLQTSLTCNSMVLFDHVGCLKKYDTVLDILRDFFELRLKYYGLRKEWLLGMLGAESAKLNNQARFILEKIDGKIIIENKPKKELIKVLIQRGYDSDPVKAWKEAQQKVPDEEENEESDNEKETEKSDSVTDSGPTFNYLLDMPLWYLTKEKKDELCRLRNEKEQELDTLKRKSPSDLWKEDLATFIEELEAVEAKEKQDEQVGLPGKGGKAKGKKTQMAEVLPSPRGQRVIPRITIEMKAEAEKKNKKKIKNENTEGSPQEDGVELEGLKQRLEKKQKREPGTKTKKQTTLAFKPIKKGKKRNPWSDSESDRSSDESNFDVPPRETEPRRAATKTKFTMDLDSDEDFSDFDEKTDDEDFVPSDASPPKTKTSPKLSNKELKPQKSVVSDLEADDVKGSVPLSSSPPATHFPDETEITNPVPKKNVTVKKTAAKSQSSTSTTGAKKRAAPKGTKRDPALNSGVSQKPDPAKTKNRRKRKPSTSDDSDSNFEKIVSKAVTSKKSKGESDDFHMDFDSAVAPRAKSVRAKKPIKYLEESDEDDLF
T1 sequence (P07948 2-512 limits assumed): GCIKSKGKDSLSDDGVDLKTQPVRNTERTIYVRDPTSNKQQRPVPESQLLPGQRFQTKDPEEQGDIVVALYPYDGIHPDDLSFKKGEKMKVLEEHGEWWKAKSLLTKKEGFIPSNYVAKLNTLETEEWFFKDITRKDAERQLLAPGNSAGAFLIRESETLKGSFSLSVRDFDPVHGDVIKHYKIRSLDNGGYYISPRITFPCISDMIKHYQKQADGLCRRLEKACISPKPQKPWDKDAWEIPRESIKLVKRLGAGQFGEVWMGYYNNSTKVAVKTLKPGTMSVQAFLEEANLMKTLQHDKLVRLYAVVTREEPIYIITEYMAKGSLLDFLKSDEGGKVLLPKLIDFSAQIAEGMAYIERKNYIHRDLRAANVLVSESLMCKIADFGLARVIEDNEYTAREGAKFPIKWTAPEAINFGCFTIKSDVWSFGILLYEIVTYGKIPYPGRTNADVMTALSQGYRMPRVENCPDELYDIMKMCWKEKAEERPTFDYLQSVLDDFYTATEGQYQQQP

Nc1ccn([C@@H]2O[C@H](CO)[C@@H](O)[C@@H]2O)c(=O)n1 [Cytarabine]
EFS (%) 60 days [1]: 20% | EFS (%) 120 days [1]: 0% | Median EFS [1]: 57 days

O=c1c(-c2ccc(O)cc2)coc2cc(O)cc(O)c12 [GEN, 5,7,4'-trihydroxyisoflavone]
Inhibition of LYN kinase (autophosphorylation, enolase substrate phosphorylation) [2]: failed to affect | Tyrosine dephosphorylation of abundant protein substrates [3]: failed to affect | DNA fragmentation / apoptosis by agarose gel electrophoresis (RAMOS cells; RAMOS cells, 8-24 hours, immunoconjugates nanomolar, unconjugated GEN micromolar): no fragmentation | DNA fragmentation by the unconjugated moieties (RAMOS cells; high concentrations, FIG. 4B lower panel): induced DNA fragmentation | Median event-free survival [4]: 48.0 days | Cl (systemic clearance from plasma) (in vivo [5]): 49.7 µL/h/g | Kcp (distribution rate constant from central to peripheral compartment) (in vivo [5]): 1.341 h⁻¹ | Kpc (distribution rate constant from peripheral to central compartment) (in vivo [5]): 0.549 h⁻¹ | Vc (central volume of distribution) (in vivo [5]): 87.0 µL/g | k el (in vivo [5]; mouse, in vivo, iv, read-out: Ke (elimination rate constant) (converted)): 0.000159 s⁻¹ | half-life (in vivo [5]; mouse, in vivo, iv, read-out: T1/2β (elimination halflife) (converted)): 5.1 h | Clearance, Kidney (in vivo [6]): 18.7 µL/h/g | Clearance, Liver (in vivo [6]): 40.9 µL/h/g | Total Clearance (in vivo [6]): 59.6 µL/h/g | Kp (in vivo [6]; read-out: Linear Binding Constant (R), Brain): 0.027 | Kp (in vivo [6]; read-out: Linear Binding Constant (R), Heart): 0.335 | Kp (in vivo [6]; read-out: Linear Binding Constant (R), Kidney): 0.253 | Kp (in vivo [6]; read-out: Linear Binding Constant (R), Liver): 0.5 | Kp (in vivo [6]; read-out: Linear Binding Constant (R), Lungs): 0.531 | Kp (in vivo [6]; read-out: Linear Binding Constant (R), Muscle): 0.095 | Kp (in vivo [6]; read-out: Linear Binding Constant (R), Skin): 0.208 | Kp (in vivo [6]; read-out: Linear Binding Constant (R), Spleen): 0.04 | Kp (in vivo [6]; residual drug not accounted for by tissues studied, read-out: Linear Binding Constant (R), Rest of Body): 1.11

CC[C@]1(O)C[C@H]2CN(CCc3c([nH]c4ccccc34)[C@@](C(=O)OC)(c3cc4c(cc3OC)N(C=O)[C@H]3[C@@](O)(C(=O)OC)[C@H](OC(C)=O)[C@]5(CC)C=CCN6CC[C@]43[C@@H]65)C2)C1 [Vincristine]
EFS (%) 60 days [1]: 0% | EFS (%) 120 days [1]: 0% | Median EFS [1]: 51 days

COc1cc([C@@H]2c3cc4c(cc3[C@@H](O[C@@H]3O[C@@H]5CO[C@@H](c6cccs6)O[C@H]5[C@H](O)[C@H]3O)[C@H]3COC(=O)[C@H]23)OCO4)cc(OC)c1O [teniposide (VM-26), teniposide]
Inhibition of topoisomerase II (relaxation of supercoiled pRYG DNA) [7]: impairs the ability of human topoisomerase II to relax the supercoiled DNA substrate

COc1cc([C@@H]2c3cc4c(cc3[C@@H](O[C@@H]3O[C@@H]5CO[C@@H](C)O[C@H]5[C@H](O)[C@H]3O)[C@H]3COC(=O)[C@H]23)OCO4)cc(OC)c1O [Etoposide]
EFS (%) 60 days [1]: 60% | EFS (%) 120 days [1]: 30% | Median EFS [1]: 66 days

O=NN(CCCl)C(=O)NCCCl [Carmustine]
EFS (%) 60 days [1]: 20% | EFS (%) 120 days [1]: 0% | Median EFS [1]: 54 days

COc1cccc2c1C(=O)c1c(O)c3c(c(O)c1C2=O)C[C@@](O)(C(=O)CO)C[C@@H]3O[C@H]1C[C@H](N)[C@H](O)[C@H](C)O1 [Doxorubicin]
EFS (%) 60 days [1]: 20% | EFS (%) 120 days [1]: 0% | Median EFS [1]: 49 days

O=P1(N(CCCl)CCCl)NCCCO1 (stereo not drawn) [Cyclophosphamide]
EFS (%) 60 days [1]: 40% | EFS (%) 120 days [1]: 10% | Median EFS [1]: 54 days

C[C@H]1C[C@@H]2[C@H](C(=O)C[C@@]3(C)[C@H]2CC[C@]3(O)C(=O)CO)[C@@]2(C)C=CC(=O)C=C12 [Methylprednisone]
EFS (%) 60 days [1]: 40% | EFS (%) 120 days [1]: 20% | Median EFS [1]: 56 days

CC[C@@]1(O)C(=O)OCc2c1cc1n(c2=O)Cc2cc3c(CN(C)C)c(O)ccc3nc2-1 [Topotecan]
EFS (%) 60 days [1]: 18% | EFS (%) 120 days [1]: 0% | Median EFS [1]: 44 days

CC(=O)O[C@H]1C(=O)[C@@]2(C)[C@H]([C@H](OC(=O)c3ccccc3)[C@]3(O)C[C@H](OC(=O)[C@H](O)[C@@H](NC(=O)c4ccccc4)c4ccccc4)C(C)=C1C3(C)C)[C@]1(OC(C)=O)CO[C@@H]1C[C@@H]2O [Taxol]
EFS (%) 60 days [1]: 0% | EFS (%) 120 days [1]: 0% | Median EFS [1]: 37 days

L-asparaginase
EFS (%) 60 days [1]: 0% | EFS (%) 120 days [1]: 0% | Median EFS [1]: 44 days
